The target in assay [1] is T1, Fatty acid synthase (Homo sapiens, UniProt P49327). The assay can be described thus: Inhibition of fatty acid synthase (unknown origin).
For assay [2], the system named is A2780. The assay can be described thus: Cytotoxicity against human A2780 cells. The class given is functional, cell-based.
Assay [3] in a line: Cytotoxicity against human PC-3M-luc-C6 cells. The class given is functional, cell-based.
The target of assay [4] is T1, Fatty acid synthase. Put plainly: Inhibition of fatty acid synthase KR domain (unknown origin).
Assay [5] is described as follows: Cytotoxicity against human MCF10A cells. It is filed as functional, cell-based. To be noted: MCF-10A.

Structures are written as SMILES.

Usually IC50 stands for the concentration that inhibits the measured activity by half. High values mean lower potency, low ones higher potency.

T1 sequence (P49327 whole entry): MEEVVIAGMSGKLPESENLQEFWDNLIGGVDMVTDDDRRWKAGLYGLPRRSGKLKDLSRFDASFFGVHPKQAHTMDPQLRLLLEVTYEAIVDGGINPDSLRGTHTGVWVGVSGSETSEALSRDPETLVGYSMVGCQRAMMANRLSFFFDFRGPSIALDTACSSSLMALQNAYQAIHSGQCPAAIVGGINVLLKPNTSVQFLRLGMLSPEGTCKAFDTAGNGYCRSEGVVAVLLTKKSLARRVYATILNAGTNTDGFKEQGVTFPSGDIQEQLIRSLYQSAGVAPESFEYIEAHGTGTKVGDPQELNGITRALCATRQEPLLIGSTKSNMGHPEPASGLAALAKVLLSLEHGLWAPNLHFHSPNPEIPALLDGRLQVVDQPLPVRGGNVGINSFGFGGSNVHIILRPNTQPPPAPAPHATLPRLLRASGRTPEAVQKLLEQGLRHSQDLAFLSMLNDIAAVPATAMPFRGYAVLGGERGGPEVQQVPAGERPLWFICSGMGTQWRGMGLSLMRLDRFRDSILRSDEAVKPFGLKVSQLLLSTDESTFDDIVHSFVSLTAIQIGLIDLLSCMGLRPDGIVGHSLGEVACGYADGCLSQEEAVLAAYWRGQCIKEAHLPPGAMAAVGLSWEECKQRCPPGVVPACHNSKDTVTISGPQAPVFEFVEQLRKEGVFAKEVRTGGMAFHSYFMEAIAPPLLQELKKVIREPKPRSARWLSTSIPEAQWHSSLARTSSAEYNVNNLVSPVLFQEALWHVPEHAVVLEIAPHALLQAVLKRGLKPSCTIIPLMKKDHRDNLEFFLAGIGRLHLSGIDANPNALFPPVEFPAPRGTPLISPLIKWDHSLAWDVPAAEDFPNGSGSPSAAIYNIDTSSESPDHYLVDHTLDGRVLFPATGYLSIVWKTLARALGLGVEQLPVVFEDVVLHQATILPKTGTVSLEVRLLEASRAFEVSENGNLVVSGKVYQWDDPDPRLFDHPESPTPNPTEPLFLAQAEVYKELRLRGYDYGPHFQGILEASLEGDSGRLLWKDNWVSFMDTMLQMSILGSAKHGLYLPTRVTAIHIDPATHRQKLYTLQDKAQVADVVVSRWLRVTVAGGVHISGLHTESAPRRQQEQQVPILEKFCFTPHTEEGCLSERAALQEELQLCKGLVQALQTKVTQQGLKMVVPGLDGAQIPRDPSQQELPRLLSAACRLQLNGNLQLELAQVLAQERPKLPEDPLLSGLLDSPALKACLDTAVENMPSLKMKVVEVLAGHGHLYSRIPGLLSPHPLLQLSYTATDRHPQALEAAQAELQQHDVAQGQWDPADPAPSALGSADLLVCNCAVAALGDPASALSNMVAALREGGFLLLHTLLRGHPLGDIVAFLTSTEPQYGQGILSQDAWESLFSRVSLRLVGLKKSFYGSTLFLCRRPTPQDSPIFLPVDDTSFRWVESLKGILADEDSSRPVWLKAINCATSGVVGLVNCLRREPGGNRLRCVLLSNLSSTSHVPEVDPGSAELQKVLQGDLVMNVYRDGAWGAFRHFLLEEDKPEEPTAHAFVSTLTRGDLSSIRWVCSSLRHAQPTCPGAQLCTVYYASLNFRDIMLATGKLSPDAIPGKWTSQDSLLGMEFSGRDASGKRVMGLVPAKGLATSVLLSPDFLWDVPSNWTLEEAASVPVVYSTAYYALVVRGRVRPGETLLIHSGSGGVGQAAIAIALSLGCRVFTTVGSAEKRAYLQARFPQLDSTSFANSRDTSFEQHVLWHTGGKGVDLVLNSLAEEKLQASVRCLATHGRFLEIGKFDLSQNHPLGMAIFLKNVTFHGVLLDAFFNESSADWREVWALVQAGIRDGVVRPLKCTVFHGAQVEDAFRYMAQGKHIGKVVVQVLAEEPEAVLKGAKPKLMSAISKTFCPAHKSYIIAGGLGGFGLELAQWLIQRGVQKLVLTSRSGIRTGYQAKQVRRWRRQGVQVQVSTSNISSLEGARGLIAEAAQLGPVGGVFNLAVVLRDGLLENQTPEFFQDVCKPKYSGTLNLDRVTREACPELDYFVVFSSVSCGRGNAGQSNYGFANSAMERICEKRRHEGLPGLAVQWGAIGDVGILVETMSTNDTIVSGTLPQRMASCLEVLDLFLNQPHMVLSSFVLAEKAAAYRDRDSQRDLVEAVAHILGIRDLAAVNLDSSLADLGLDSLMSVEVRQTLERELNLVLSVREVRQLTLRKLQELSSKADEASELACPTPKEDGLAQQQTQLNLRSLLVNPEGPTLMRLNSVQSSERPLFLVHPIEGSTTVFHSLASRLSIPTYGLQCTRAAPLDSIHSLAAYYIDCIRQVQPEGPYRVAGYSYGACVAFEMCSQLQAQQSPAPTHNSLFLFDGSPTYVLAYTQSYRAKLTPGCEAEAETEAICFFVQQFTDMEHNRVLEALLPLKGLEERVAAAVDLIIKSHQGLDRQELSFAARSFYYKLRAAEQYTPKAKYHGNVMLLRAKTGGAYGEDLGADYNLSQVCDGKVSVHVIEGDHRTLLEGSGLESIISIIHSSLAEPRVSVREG

In turn, `O=C1COC2(CCN(S(=O)(=O)c3ccc(-c4cccc5cnccc45)cc3)CC2)CN1C1CC1` gave an IC50 in assay [1] of 6 nM.
On the same count and under the same terms, to `CN(C[C@@H]1CCN(C(=O)C2CC2)C1)C(=O)c1ccc(-c2ccc3[nH]ccc3c2)cc1F` belongs 20 nM.
For the compound `CC1(C)N=C(c2ccc(-c3c[nH]c4ccccc34)cc2)N(C[C@@H]2CCN(C(=O)C3CC3)C2)C1=O`, the IC50 stood at 3 nM in assay [2], 8 nM in assay [3] and 41 nM in assay [4].
`Cc1cc(C)cc(N2C(=O)NC(=O)/C(=C\c3ccc(-c4ccccc4)o3)C2=O)c1` yielded an IC50 in assay [5] of 24300 nM.
For the compound `N#Cc1ccc2cc(N3CCN(S(=O)(=O)N4CCC5(CC4)CN(C4CC4)C(=O)CO5)CC3)ccc2c1`, the IC50 in assay [1] worked out at 10 nM. This counts as double-digit nanomolar.
As to `Cc1ccc(C(=O)N2CCC(c3ccc4nncn4c3)CC2)cc1NC(=O)c1ccc(Cl)nc1`, the results for the half-maximal inhibitory concentration (IC50) in assay [2], in assay [3] and in assay [4] were 41 nM, 35 nM and 93 nM, respectively.
For the compound `O=C(C1CC1)N1CC[C@@H](Cc2n[nH]c(=O)n2-c2ccc(-c3ccc4ccncc4c3)cc2F)C1`, half-maximal inhibition in assay [1] (IC50) required 3 nM. That is a single-digit nanomolar value.
Still for that read-out and setting: the figure for `O=C(C1CC1)N1CCC(Cn2cnnc2-c2ccc(-c3ccc4[nH]ncc4c3)cc2)C1` (single isomer, unassigned) is 13 nM.
